Assay results: PubChem BioAssay AID330 (DTP/NCI, 2004)
“And” between values parts separate entries of the source, which are not always exact repeats. Equal values may be shown once. Inconclusive results and toxic doses are left out. Rule for the calls: active = survival T/C of 150% or more; inactive = T/C below 125% in these data.

System: P388 leukemia ip, CD2F1 mice, survival T/C
Assay: NCI In Vivo Anticancer Drug Screen. Data for tumor model P388 Leukemia (intraperitoneal) in CD2F1 (CDF1) mice
Conditions: endpoint: median survival time, higher = longer survival
Procedure, shortened: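 Mice carrying the transplanted tumor received test compound or vehicle. Survival was recorded in each group, and the value is the treated-group measurement divided by that of the vehicle-treated control group.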

[1] = dose: 100.0 mg/kg/injection, schedule: Q04DX003 (ip), vehicle: saline with Tween-80
[2] = dose: 200.0 mg/kg/injection, schedule: Q04DX003 (ip), vehicle: saline with Tween-80
[3] = dose: 400.0 mg/kg/injection, schedule: Q04DX003 (ip), vehicle: saline with Tween-80
[4] = dose: 50.0 mg/kg/injection, schedule: Q01DX009 (ip), vehicle: Klucel (hydroxypropylcellulose) (HPC)
[5] = dose: 100.0 mg/kg/injection, schedule: Q01DX009 (ip), vehicle: Klucel (hydroxypropylcellulose) (HPC)
[6] = dose: 200.0 mg/kg/injection, schedule: Q01DX009 (ip), vehicle: Klucel (hydroxypropylcellulose) (HPC)
[7] = dose: 100.0 mg/kg/injection, schedule: Q01DX009 (ip), vehicle: saline with Tween-80
[8] = dose: 400.0 mg/kg/injection, schedule: Q01DX009 (ip), vehicle: saline with Tween-80
[9] = dose: 60.0 mg/kg/injection, schedule: Q01DX005 (ip), vehicle: saline
[10] = dose: 120.0 mg/kg/injection, schedule: Q01DX005 (ip), vehicle: saline
[11] = dose: 240.0 mg/kg/injection, schedule: Q01DX005 (ip), vehicle: saline
[12] = dose: 60.0 mg/kg/injection, schedule: Q01DX005 (ip), vehicle: saline with Tween-80
[13] = dose: 120.0 mg/kg/injection, schedule: Q01DX005 (ip), vehicle: saline with Tween-80
[14] = dose: 240.0 mg/kg/injection, schedule: Q01DX005 (ip), vehicle: saline with Tween-80

Measured: T/C

CC(O)(CO)C(C)(O)c1cn(O)c(=N)c(C(=O)OCc2ccccc2)n1 (stereo not drawn)
inactive: dose: 100.0 mg/kg/injection, schedule: Q01DX001 (ip), vehicle: saline 99 % of control | dose: 200.0 mg/kg/injection, schedule: Q01DX001 (ip), vehicle: saline 95 % of control | dose: 400.0 mg/kg/injection, schedule: Q01DX001 (ip), vehicle: saline 88 % of control

C=C1C(=O)OC2C(OC(=O)CC(C)C)CCCC12 (stereo not drawn)
inactive: dose: 60.0 mg/kg/injection, schedule: Q01DX005 (ip), vehicle: Klucel (hydroxypropylcellulose) (HPC) 94 % of control | dose: 120.0 mg/kg/injection, schedule: Q01DX005 (ip), vehicle: Klucel (hydroxypropylcellulose) (HPC) 92 % of control | dose: 240.0 mg/kg/injection, schedule: Q01DX005 (ip), vehicle: Klucel (hydroxypropylcellulose) (HPC) 92 % of control

Clc1nc2nc(C3CC3)[nH]c2nc1Cl
inactive: [1] 100 % of control | [2] 100 % of control | [3] 100 % of control

Nc1nc(N)c(-c2cccc(Cl)c2)c(CBr)n1
inactive: dose: 12.5 mg/kg/injection, schedule: Q01DX009 (ip), vehicle: saline with Tween-80 113 % of control | dose: 25.0 mg/kg/injection, schedule: Q01DX009 (ip), vehicle: saline with Tween-80 114 % of control

CCOC(=O)NCCF
inactive: dose: 0.78 mg/kg/injection, schedule: Q01DX009 (ip), vehicle: saline 96 % of control | dose: 1.56 mg/kg/injection, schedule: Q01DX009 (ip), vehicle: saline 101 % of control | dose: 3.12 mg/kg/injection, schedule: Q01DX009 (ip), vehicle: saline 101 % of control

CC(C)(C)N1CS[C@@H]2CCCC[C@H]21
inactive: dose: 25.0 mg/kg/injection, schedule: Q01DX005 (ip), vehicle: saline 104 % of control | dose: 50.0 mg/kg/injection, schedule: Q01DX005 (ip), vehicle: saline 92 % of control | dose: 100.0 mg/kg/injection, schedule: Q01DX005 (ip), vehicle: saline 111 % of control

O=C(c1ccccc1)c1ccccc1-c1nc2ccccc2c(=O)o1
inactive: [4] 100 % of control | [5] 95 % of control | [6] 109 % of control

COc1ccc(NC(=O)CCC(=O)Oc2ccccc2)cc1
inactive: [7] 100 % of control | [8] 94 % of control

CC(=O)OCC1=COC(OC(=O)CC(C)(C)OC(C)=O)C2C1=CC(OC(=O)CC(C)C)[C@@]21CO1 (stereo partly drawn)
inactive: dose: 10.0 mg/kg/injection, schedule: Q01DX005 (ip), vehicle: saline 97 % of control | dose: 20.0 mg/kg/injection, schedule: Q01DX005 (ip), vehicle: saline 93 % of control | dose: 40.0 mg/kg/injection, schedule: Q01DX005 (ip), vehicle: saline 99 % of control

CC(C)=CCC/C(C)=C/COc1ccc(/C=C2/C(=O)N(O)[C@@H](C)C(=O)N2O)cc1
inactive: dose: 6.25 mg/kg/injection, schedule: Q01DX009 (ip), vehicle: saline 123 % of control and 97 % of control | dose: 12.5 mg/kg/injection, schedule: Q01DX009 (ip), vehicle: saline 99 % of control | dose: 25.0 mg/kg/injection, schedule: Q01DX009 (ip), vehicle: saline 108 % of control

CNC(=O)OCc1cocc1COC(=O)NC
inactive: dose: 12.5 mg/kg/injection, schedule: Q01DX009 (ip), vehicle: distilled water + Tween-80 106 % of control | dose: 25.0 mg/kg/injection, schedule: Q01DX009 (ip), vehicle: distilled water + Tween-80 101 % of control | dose: 50.0 mg/kg/injection, schedule: Q01DX009 (ip), vehicle: distilled water + Tween-80 109 % of control | dose: 100.0 mg/kg/injection, schedule: Q01DX009 (ip), vehicle: distilled water + Tween-80 117 % of control

O=C1C=C(C2=C(O)c3ccccc3C2=O)c2ccccc21 (tested in a mixture with another compound)
inactive: [4] 105 % of control | [5] 105 % of control

C[C@]12CC[C@H](O)C[C@@H]1CC[C@@H]1[C@@H]2C(=O)C[C@@]2(C)[C@H]1CC[C@]2(O)C(=O)CBr
inactive: dose: 264.0 mg/kg/injection, schedule: Q04DX003 (ip), vehicle: saline with Tween-80 109 % of control | [3] 100 % of control | dose: 600.0 mg/kg/injection, schedule: Q04DX003 (ip), vehicle: saline with Tween-80 95 % of control

CCCN1C(=O)C2C3CCC(O3)C2C1=O (stereo not drawn)
inactive: [9] 100 % of control | [10] 109 % of control | [11] 98 % of control

C=CC1(C)OC(=O)c2cc(C)c(OC)cc21 (stereo not drawn)
inactive: dose: 50.0 mg/kg/injection, schedule: Q01DX001 (ip), vehicle: saline with Tween-80 100 % of control | dose: 100.0 mg/kg/injection, schedule: Q01DX001 (ip), vehicle: saline with Tween-80 100 % of control | dose: 200.0 mg/kg/injection, schedule: Q01DX001 (ip), vehicle: saline with Tween-80 95 % of control | dose: 400.0 mg/kg/injection, schedule: Q01DX001 (ip), vehicle: saline with Tween-80 94 % of control

S=c1n(-c2ccc(Cl)cc2)c2nc3ccccc3nc(/c2=N\Nc2cc(Cl)ccc2Cl)n1-c1ccc(Br)cc1
inactive: dose: 50.0 mg/kg/injection, schedule: Q01DX005 (ip), vehicle: saline with Tween-80 100 % of control | dose: 100.0 mg/kg/injection, schedule: Q01DX005 (ip), vehicle: saline with Tween-80 105 % of control | dose: 200.0 mg/kg/injection, schedule: Q01DX005 (ip), vehicle: saline with Tween-80 97 % of control

N#CC1=C(C#N)SCCCS1
inactive: dose: 50.0 mg/kg/injection, schedule: Q01DX009 (ip), vehicle: saline 100 % of control | dose: 100.0 mg/kg/injection, schedule: Q01DX009 (ip), vehicle: saline 100 % of control | dose: 200.0 mg/kg/injection, schedule: Q01DX009 (ip), vehicle: saline 99 % of control

C=C(/C=C/CCCC)NC(=O)OCc1ccccc1
inactive: [12] 97 % of control | [13] 96 % of control | [14] 104 % of control

O=C(NNC(=S)NC1OC(CO)C(O)C(O)C1O)c1cccc(C(=O)NNC(=S)NC2OC(CO)C(O)C(O)C2O)n1 (stereo not drawn)
inactive: [12] 97 % of control | [9] 106 % of control | [13] 100 % of control | [10] 106 % of control | [14] 96 % of control | [11] 101 % of control

COc1c(C(C)C)ccc2c1CCC1=C3COC(=O)C3CCC12C (stereo not drawn)
inactive: dose: 6.25 mg/kg/injection, schedule: Q01DX009 (ip), vehicle: DMSO 109 % of control | dose: 12.5 mg/kg/injection, schedule: Q01DX009 (ip), vehicle: DMSO 99 % of control | dose: 25.0 mg/kg/injection, schedule: Q01DX009 (ip), vehicle: DMSO 97 % of control

C1CC[N-]CC1.C1CC[N-]CC1.C1CC[N-]CC1.[Cr+6].[N-]=C=O.[N-]=C=O.[N-]=C=O
inactive: dose: 100.0 mg/kg/injection, schedule: Q04DX002 (ip), vehicle: distilled water + alcohol 99 % of control | dose: 200.0 mg/kg/injection, schedule: Q04DX002 (ip), vehicle: distilled water + alcohol 96 % of control | dose: 400.0 mg/kg/injection, schedule: Q04DX002 (ip), vehicle: distilled water + alcohol 89 % of control

CC(C(=O)O)S(=O)(=O)C(C)C(=O)O (stereo not drawn)
inactive: dose: 100.0 mg/kg/injection, schedule: Q04DX002 (ip), vehicle: saline 98 % of control | dose: 200.0 mg/kg/injection, schedule: Q04DX002 (ip), vehicle: saline 91 % of control

O=S(=O)(Nc1ccc(O)cc1)c1ccccc1
inactive: dose: 25.0 mg/kg/injection, schedule: Q04DX003 (ip), vehicle: saline with Tween-80 110 % of control | dose: 50.0 mg/kg/injection, schedule: Q04DX003 (ip), vehicle: saline with Tween-80 100 % of control | [7] 108 % of control | [1] 107 % of control | dose: 200.0 mg/kg/injection, schedule: Q01DX009 (ip), vehicle: saline with Tween-80 100 % of control | [2] 100 % of control | [8] 87 % of control | [3] 100 % of control

COc1ccc(C2=NCCc3cc(OC)c(OC)cc32)cc1OC
inactive: dose: 6.25 mg/kg/injection, schedule: Q01DX009 (ip), vehicle: water 111 % of control | dose: 12.5 mg/kg/injection, schedule: Q01DX009 (ip), vehicle: water 108 % of control | dose: 25.0 mg/kg/injection, schedule: Q01DX009 (ip), vehicle: water 118 % of control | dose: 50.0 mg/kg/injection, schedule: Q01DX009 (ip), vehicle: water 105 % of control | dose: 100.0 mg/kg/injection, schedule: Q01DX009 (ip), vehicle: water 111 % of control

CC(COCNc1ccccc1)C(=O)O (stereo not drawn)
inactive: [4] 103 % of control | [5] 103 % of control | [6] 100 % of control
